Tests used:
[1] = tested on: AMPA, NMDA and kainate receptors, dorsal horn laminae I-III; test: Immunohistochemistry and densitometry of dorsal horn glutamate receptor expression after epidural glutamate infusion; type: in vivo, rat
Experimental: Immunohistochemical studies show expression of dorsal horn glutamate receptors in painful conditions involving the lower extremity in the rat. A relatively high concentration (2 mmol/L) of glutamate was infused for 72 hours (same infusion time period as in previous experiments) and densitometry was performed at 40× AMPA, NMDA and kainate for receptor expression at dorsal horn laminae I-III bilaterally, at spinal cord levels where the dorsal root ganglion input would enter the spinal cord dorsal horn, to determine whether receptor expression was increased. The microscopist was blinded to the nature of the sample.

[2] = tested on: rat hind paw withdrawal (nociception); test: Von Frey fiber behavioral test after epidural glutamate infusion; type: in vivo; settings: epidural infusion 2.0-0.0002 mM for 72 hours; most prominent on day 3, also day 1
Experimental: Behavioral experiments have been completed at a wider range of concentrations. Rats are infused with epludial glutamate at concentrations of 2.0, 0.2, 0.02, 0.002 and 0.0002 mM for 72 hours (3 days). Von Frey fiber examinations were performed on left and right hind paws 24 hours before infusion and then 24, 72, and 144 hours after onset of glutamate infusion. The experimenter was blinded as to which infusate was used. Contralateral to ipsilateral differences were analyzed with respect to concentration of glutamate infusion and hours post-procedure. […] The response was most significant at the 0.02 mM concentration but present at 0.002 and 0.2 mM concentrations. […]
Behavioral Tests—The von Frey Fiber mechanical allodynia assay is performed 24 hours preoperatively and 24, 72, and 144 hours postoperatively. […] Starting with 0.6 grams of force and working up to 1, 1.4, 2, 4, 6, 8, 10, 15, and finally 26, each paw's response is recorded. […]
The protocol has the experimenter tap the bottom surface of the paw with one fiber at a time for six seconds each. […] If a response is not recognized, then the next fiber (one that elicited 1.0 grams of force) is applied, and so on in increasing order of force until a paw withdrawal response was recorded. After the initial response is recorded, the experimenter completes the testing procedure by testing the same paw with fibers in descending order of force. […]

[3] = 2 mmol/L glutamate, 72 hours, p<0.01

N[C@@H](CCC(=O)O)C(=O)O [glutamate]
AMPA, NMDA and kainate receptor expression versus saline-infused controls ([1]; 2 mmol/L glutamate infused for 72 hours, dorsal horn laminae I-III, two-tailed T test): upregulation of expression over saline-infused controls | AMPA receptor expression ipsilateral versus contralateral [1, 3]: upregulation of receptor expression ipsilateral to the side of infusion | NMDA receptor expression ipsilateral versus contralateral [1, 3]: upregulation of receptor expression ipsilateral to the side of infusion | kainate receptor expression ipsilateral versus contralateral ([1]; 2 mmol/L glutamate, 72 hours, p<0.05): upregulation of receptor expression ipsilateral to the side of infusion | von Frey contralateral to ipsilateral difference (hypersensitivity) [2]: significant hypersensitivity postoperatively

— patent publication US20040138204A1, “Compositions and methods for pain reduction” (priority 2002, published 2004)
